Results as given in the supplement of paper PMC10307832.

Assays:
Assay in all cases: relative viability (nuclei count vs DMSO), 5 days (fraction); higher = more cells survive
[1] = compound: O=C(C[C@H]1NCCC[C@@H]1O)Cn1cnc2cc(Br)c(Cl)cc2c1=O (racemic) [Halofuginone] + CC(=O)c1c(C)c2cnc(Nc3ccc(N4CCNCC4)cn3)nc2n(C2CCCC2)c1=O [Palbociclib] (partner 0.5 µM)
Outline: (§1)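 Nuclei were stained with Hoechst during a one-step fixation (final 0.05% Triton X-100, 1% formaldehyde, 1 ug/ml Hoechst) carried out 5 days after dosing, then counted on 4× images. The cells, lung cancer lines in 1536-well plates, had been dosed by pin tool the day after seeding with one drug alone or a fixed anchor-drug dose plus five library-drug doses (not always all listed) in √10 steps. Relative viability is the nuclei count in treated wells divided by that in vehicle wells, and each value is the median of duplicate plates.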

Decitabine + Bortezomib = compound: Nc1ncn([C@H]2C[C@H](O)[C@@H](CO)O2)c(=O)n1 [Decitabine] + CC(C)C[C@H](NC(=O)[C@H](Cc1ccccc1)NC(=O)c1cnccn1)B(O)O [Bortezomib] (partner 0.002 µM)
Outline: as §1

Cediranib + Linsitinib = compound: COc1cc2c(Oc3ccc4[nH]c(C)cc4c3F)ncnc2cc1OCCCN1CCCC1 [Cediranib] + C[C@]1(O)C[C@@H](c2nc(-c3ccc4ccc(-c5ccccc5)nc4c3)c3c(N)nccn32)C1 [Linsitinib] (partner 1 µM)
Outline: as §1

Cell Line | relative viability ([1]; first compound 0.001 µM) | relative viability ([1]; first compound 0.003162 µM) | relative viability ([1]; first compound 0.01 µM) | relative viability ([1]; first compound 0.03162 µM) | relative viability ([1]; first compound 0.1 µM) | relative viability (Decitabine + Bortezomib; first compound 0.1265 µM) | relative viability (Decitabine + Bortezomib; first compound 0.4 µM) | relative viability (Decitabine + Bortezomib; first compound 1.265 µM) | relative viability (Decitabine + Bortezomib; first compound 4 µM) | relative viability (Cediranib + Linsitinib; first compound 0.04 µM) | relative viability (Cediranib + Linsitinib; first compound 0.1265 µM) | relative viability (Cediranib + Linsitinib; first compound 0.4 µM) | relative viability (Cediranib + Linsitinib; first compound 1.265 µM) | relative viability (Cediranib + Linsitinib; first compound 4 µM) | relative viability (Decitabine + Bortezomib; first compound 0.04 µM)
PC-3 [JPC-3] | 0.595 | 0.511 | 0.529 | 0.516 | 0.493 | 0.6 | 0.458 | 0.462 | 0.389 | 0.991 | 0.942 | 0.907 | 0.93 | 1.04 | 
HCC-44 | 0.976 | 0.964 | 0.962 | 0.932 | 0.966 | 0.898 | 0.536 | 0.602 | 0.548 | 0.7 |  | 0.636 | 0.654 | 0.729 | 0.821
NCI-H2405 | 0.573 | 0.565 | 0.527 | 0.498 | 0.424 | 0.905 | 0.828 | 0.66 | 0.538 | 1 | 1.25 | 0.838 | 1.06 | 0.836 | 0.88
LXF-289 | 0.553 | 0.608 | 0.577 | 0.603 | 0.581 | 0.714 | 0.503 | 0.347 | 0.324 | 0.986 | 0.903 | 0.93 | 0.942 | 0.902 | 0.775
LOU-NH91 | 0.567 | 0.515 | 0.494 | 0.492 | 0.589 | 0.471 | 0.436 | 0.512 | 0.523 | 0.905 | 1.2 | 0.915 | 0.969 | 0.759 | 0.412
A549 |  |  |  |  |  |  |  |  |  | 0.723 | 0.644 | 0.543 | 0.633 | 0.471 | 
H3255 | 0.322 | 0.323 | 0.346 | 0.309 | 0.351 | 0.751 | 0.479 | 0.521 | 0.705 | 1.04 | 1.04 | 0.89 | 0.898 | 0.912 | 0.294
NCI-H1395 | 0.645 | 0.589 | 0.542 | 0.553 | 0.458 |  |  |  |  | 0.937 |  | 1.11 | 1.16 | 0.936 | 
LC-2-ad | 0.504 | 0.505 | 0.456 | 0.478 | 0.411 | 0.779 | 0.459 | 0.304 | 0.329 | 0.871 | 0.831 | 0.842 | 0.771 | 0.806 | 0.799
NCI-H838 | 0.234 | 0.25 | 0.199 | 0.171 | 0.0921 | 0.381 | 0.293 | 0.296 | 0.243 | 1.06 | 1.03 | 0.956 | 0.984 | 1.03 | 0.528
Calu-6 |  |  |  |  |  | 0.67 | 0.43 | 0.373 | 0.321 | 0.881 | 0.971 | 0.938 | 0.854 | 1.06 | 0.853
NCI-H1648 | 0.28 | 0.322 | 0.178 | 0.261 | 0.249 |  |  |  |  |  |  |  |  |  | 
LCLC-97TM1 | 0.3 | 0.194 | 0.257 | 0.239 | 0.219 | 0.268 | 0.123 | 0.124 | 0.11 | 0.192 |  | 0.175 | 0.144 | 0.28 | 0.202
HCC-15 | 0.802 | 0.823 | 0.731 | 0.713 | 0.65 | 0.891 | 0.381 | 0.467 | 0.493 | 0.873 |  | 0.793 | 0.947 | 1.02 | 0.936
CAL-12T | 0.332 | 0.433 | 0.406 | 0.392 | 0.194 | 1.01 | 0.535 | 0.558 | 0.543 | 0.95 | 0.864 | 0.691 | 0.865 | 0.714 | 0.828
NCI-H727 | 0.715 | 0.582 | 0.677 | 0.703 | 0.575 | 0.672 | 0.382 | 0.605 | 0.418 | 0.293 | 0.267 | 0.33 | 0.372 | 0.279 | 0.697
ABC-1 | 0.551 | 0.606 | 0.739 | 0.475 | 0.61 | 0.239 | 0.315 | 0.23 | 0.228 | 0.656 | 0.97 | 0.799 |  | 0.786 | 0.286
NCI-H2023 | 0.406 | 0.361 | 0.374 | 0.138 | 0.0623 | 0.61 | 0.206 | 0.206 | 0.155 | 0.656 | 0.641 | 0.638 | 0.588 | 0.765 | 0.628
NCI-H2342 | 0.503 | 0.578 | 0.511 | 0.512 | 0.527 |  |  |  |  |  |  |  |  |  | 
SW 1573 | 0.422 |  | 0.392 | 0.23 | 0.106 | 0.895 | 0.99 | 0.575 | 0.382 | 0.71 | 0.698 | 0.743 | 0.754 | 0.861 | 0.969
NCI-H1993 | 0.626 | 0.519 | 0.637 | 0.617 | 0.454 | 0.898 | 0.839 | 0.777 | 0.672 | 0.774 | 0.751 | 0.701 | 0.648 | 0.818 | 0.925
NCI-H661 | 0.422 | 0.405 | 0.37 | 0.373 | 0.312 | 0.61 | 0.459 | 0.339 | 0.332 | 0.509 | 0.733 | 0.596 | 0.527 | 0.743 | 0.688
NCI-H520 | 0.191 | 0.222 | 0.208 | 0.232 | 0.2 | 0.595 | 0.374 | 0.297 | 0.221 | 1.08 |  | 0.809 | 0.806 | 0.908 | 0.628
ChaGo-K-1 | 0.945 | 0.947 | 0.963 | 0.95 | 0.947 | 0.756 | 0.579 | 0.585 | 0.566 |  |  |  |  |  | 0.768
NCI-H2085 | 0.521 | 0.461 | 0.458 | 0.461 | 0.487 | 0.801 | 0.58 | 0.451 | 0.366 | 1.01 | 0.941 | 0.898 | 0.872 | 0.926 | 0.751
